Test results: US20240327393A1 (SIRONAX LTD., priority 2021, published 2024)

System: HT-1080 (ATCC, CCL-121) cells
Test: HT-1080 cell viability assay with ferroptosis inducer RSL3 (Cell Titer-Glo)
Type: cell-based
Details: Homo sapiens; HT-1080 cells treated with RSL3; 3-fold, 10-point dilution, 1.1 μM highest concentration; Table 2; read-out: EC50 (nM), ferroptosis inhibitory activity
How it was run: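 EC50 was derived by sigmoidal dose-response regression of CellTiter-Glo luminescence viability, expressed relative to untreated wells. Compounds were tested in a ten-point, threefold dilution series (highest 1.1 μM) in the presence of the ferroptosis inducer RSL3. HT-1080 cells had been seeded at 6000 per well and grown overnight first.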

| EC50 | Compound |
| --- | --- |
| 0.1 to 100 nM | CNCCn1c(=O)n(C)c2cc(Nc3ccc(N4CC(C)OC(C)C4)cc3)ccc21 (centres unmarked) [Compound 436, 5-((4-(2,6-dimethylmorpholino)phenyl)amino)-3-methyl-1-(2-(methylamino)ethyl)-1H-benzo[d]imidazol-2(3H)-one] |
| 0.1 to 100 nM | Cc1cc(N2CC(C)OC(C)C2)c(F)cc1Nc1ccc2c(c1)OCC(=O)N2C (centres unmarked) [Compound 61, 7-((4-(2,6-dimethylmorpholino)-5-fluoro-2-methylphenyl)amino)-4-methyl-2H-benzo[b][1,4]oxazin-3(4H)-one] |
| 0.1 to 100 nM | Cn1[nH]c2cc(Nc3ccc(N4CCC(C(F)(F)F)CC4)c(F)c3)ccc2c1=O [Compound 219, 6-((3-fluoro-4-(4-(trifluoromethyl)piperidin-1-yl)phenyl)amino)-2-methyl-1,2-dihydro-3H-indazol-3-one] |
| 0.1 to 100 nM | CN(CC(F)(F)F)c1ccc(Nc2ccc3c(c2)OCC(=O)N3C)cc1 [Compound 134] |
| 0.1 to 100 nM | Cc1cc2c(C)cc(=O)oc2cc1Nc1ccc(N2CCC(C(F)(F)F)CC2)cc1 [Compound 126, 4,6-dimethyl-7-((4-(4-(trifluoromethyl)piperidin-1-yl)phenyl)amino)-2H-chromen-2-one] |
| 0.1 to 100 nM | Cc1cc(N2CCC(C(F)(F)F)CC2)ccc1Nc1ccc2c(c1)OCC(=O)N2 [Compound 100, 7-((2-methyl-4-(4-(trifluoromethyl)piperidin-1-yl)phenyl)amino)-2H-benzo[b][1,4]oxazin-3(4H)-one] |
| 0.1 to 100 nM | Cn1c(=O)oc2cc(Nc3ccc(N4CC5(CCC5)C4)cc3)ccc21 [Compound 327, 6-((4-(2-azaspiro[3.3]heptan-2-yl)phenyl)amino)-3-methylbenzo[d]oxazol-2(3H)-one] |
| 0.1 to 100 nM | CCN1Cc2ccc(Nc3ccc(N4CCC(C(F)(F)F)CC4)cc3)cc2C1 [Compound 175, 2-ethyl-N-(4-(4-(trifluoromethyl)piperidin-1-yl)phenyl)isoindolin-5-amine] |

Further lines, the molecule ahead of its results:

| Compound | EC50 |
| --- | --- |
| Cc1cc(N2CC(C)OC(C)C2)ccc1Nc1ccc2c(c1)OCC(=O)N2 (centres unmarked) [Compound 96] | 0.1 to 100 nM |
| O=C1c2ccc(Nc3ccc(N4CCCCC4)cc3)cc2CN1CC1CC1 [Compound 185, 2-(cyclopropylmethyl)-5-((4-(piperidin-1-yl)phenyl)amino)isoindolin-1-one] | 0.1 to 100 nM |
| O=C1COc2cc(Nc3cc(F)c(N4CCC(C(F)(F)F)CC4)c(F)c3)ccc2N1 [Compound 136, 7-((3,5-difluoro-4-(4-(trifluoromethyl)piperidin-1-yl)phenyl)amino)-2H-benzo[b][1,4]oxazin-3(4H)-one] | 0.1 to 100 nM |
| COc1cc(Nc2ccc3c(c2)n(C)c(=O)n3C)cnc1N1CCC(C(F)(F)F)CC1 [Compound 372, 5-((5-methoxy-6-(4-(trifluoromethyl)piperidin-1-yl)pyridin-3-yl)amino)-1,3-dimethyl-1,3-dihydro-2H-benzo[d]imidazol-2-one] | 0.1 to 100 nM |
| CC1CN(c2ccc(Nc3ccc4c(c3)OCC(=O)N4)cc2)CCO1 (centres unmarked) [Compound 148, 7-((4-(2-methylmorpholino)phenyl)amino)-2H-benzo[b][1,4]oxazin-3(4H)-one] | 0.1 to 100 nM |
| CC1CN(c2ccc(Nc3ccc4c(c3)nnn4C)cc2)CC(C)O1 (centres unmarked) [Compound 207, N-(4-(2,6-dimethylmorpholino)phenyl)-1-methyl-1H-benzo[d][1,2,3]triazol-5-amine] | 0.1 to 100 nM |
| CCCCOc1ccc(Nc2ccc3c(c2)OCC(=O)N3C)cc1 [Compound 5, 7-((4-butoxyphenyl)amino)-4-methyl-2H-benzo[b][1,4]oxazin-3(4H)-one] | 0.1 to 100 nM |
| CN1C(=O)COc2cc(Nc3ccc(N4C[C@@H]5C[C@H]4CO5)c(F)c3)ccc21 [Compound 97, 7-((4-((1S,4S)-2-oxa-5-azabicyclo[2.2.1]heptan-5-yl)-3-fluorophenyl)amino)-4-methyl-2H-benzo[b][1,4]oxazin-3(4H)-one] | 0.1 to 100 nM |
| Cn1c(=O)[nH]c2cc(Nc3ccc(N4CCC(C(F)(F)F)CC4)cc3)ccc21 [Compound 363, 1-methyl-5-((4-(4-(trifluoromethyl)piperidin-1-yl)phenyl)amino)-1,3-dihydro-2H-benzo[d]imidazol-2-one] | 0.1 to 100 nM |
| Cn1c(=O)oc2cc(Nc3ccc(N4C[C@H]5CC[C@@H]4C5)cc3)ccc21 [Compound 315, 6-((4-((1R,4S)-2-azabicyclo[2.2.1]heptan-2-yl)phenyl)amino)-3-methylbenzo[d] oxazol-2(3H)-one] | 0.1 to 100 nM |
| CCC(C)(C)c1ccc(Nc2ccc3c(c2)n(C)c(=O)n3C)cc1 [Compound 411, 1,3-dimethyl-5-((4-(tert-pentyl)phenyl)amino)-1,3-dihydro-2H-benzo[d]imidazol-2-one] | 0.1 to 100 nM |
| NC(=O)CCn1ncc2cc(Nc3ccc(N4CCC(C(F)(F)F)CC4)cc3)ccc21 [Compound 412, 3-(5-((4-(4-(trifluoromethyl)piperidin-1-yl)phenyl)amino)-1H-indazol-1-yl)propanamide] | 0.1 to 100 nM |
| CC(C)(C)c1ccc(Nc2ccc3c(c2)OCC(=O)N3)cc1 [Compound 135, 7-((4-(tert-butyl)phenyl)amino)-2H-benzo[b][1,4]oxazin-3(4H)-one] | 0.1 to 100 nM |
| CCN1Cc2ccc(Nc3ccc(N4CCCCC4)c(C(F)(F)F)c3)cc2C1 [Compound 177, 2-ethyl-N-(4-(piperidin-1-yl)-3-(trifluoromethyl)phenyl)isoindolin-5-amine] | 0.1 to 100 nM |
| CCC1CN(c2ccc(Nc3ccc4c(c3)OCC(=O)N4C)c(C)c2)CCO1 (centres unmarked) [Compound 147, 7-((4-(2-ethylmorpholino)-2-methylphenyl)amino)-4-methyl-2H-benzo[b][1,4]oxazin-3(4H)-one] | 0.1 to 100 nM |

Same assay, conditions: Homo sapiens; HT-1080 cells treated with RSL3; 3-fold, 10-point dilution, 1.1 μM highest concentration; Table 3; read-out: EC50 (nM), ferroptosis inhibitory activity

| EC50 | Compound |
| --- | --- |
| 0.1 to 100 nM | CN1C(=O)COc2cc(Nc3ccc(N4CCC(C(F)(F)F)CC4)cc3Cl)ccc21 [Compound 451, 7-((2-chloro-4-(4-(trifluoromethyl)piperidin-1-yl)phenyl)amino)-4-methyl-2H-benzo[b][1,4]oxazin-3(4H)-one] |
| 0.1 to 100 nM | Cc1cc(N2CCC(C(F)(F)F)CC2)ccc1Nc1cc(C)c2c(c1)OCC(=O)N2 [Compound 473, 5-methyl-7-((2-methyl-4-(4-(trifluoromethyl)piperidin-1-yl)phenyl)amino)-2H-benzo[b][1,4]oxazin-3(4H)-one] |
| 0.1 to 100 nM | CC1=NCC(=O)Nc2ccc(Nc3ccc(N4CCC(C(F)(F)F)CC4)cc3C)cc21 [Compound 656, 5-methyl-7-[2-methyl-4-[4-(trifluoromethyl)-1-piperidyl]anilino]-1,3-dihydro-1,4-benzodiazepin-2-one] |
| 0.1 to 100 nM | Cc1nc(N2CCC(C(F)(F)F)CC2)ccc1Nc1ccc2c(c1)OCC(=O)N2 [Compound 489, 7-((2-methyl-6-(4-(trifluoromethyl)piperidin-1-yl)pyridin-3-yl)amino)-2H-benzo[b][1,4]oxazin-3(4H)-one] |

The remaining lines, values behind:

| Compound | EC50 |
| --- | --- |
| Cc1nc(N2CC(C)OC(C)(C)C2)ccc1Nc1ccc2c(c1)OCC(=O)N2 (centres unmarked) [Compound 520, 7-((2-methyl-6-(2,2,6-trimethylmorpholino)pyridin-3-yl)amino)-2H-benzo[b][1,4]oxazin-3(4H)-one] | 0.1 to 100 nM |
| Cc1cc(N2CC(F)C2)ccc1Nc1ccc2c(c1)OC[C@H](N)C(=O)N2 [Compound 611, (S)-3-amino-8-((4-(3-fluoroazetidin-1-yl)-2-methylphenyl)amino)-2,3-dihydrobenzo[b][1,4]oxazepin-4(5H)-one] | 0.1 to 100 nM |
